Reference: patent US7579356B2, “Thia-tetraazaacenaphthylene kinase inhibitors” (Janssen Pharmaceutica NV, priority 2005, dated 2009)

Tests used:
EGFR = biological target: T1, EGFR (Homo sapiens, UniProt P00533); assay: EGFR Kinase Assay; assay type: biochemical; conditions: for inhibition at 2 µM: test concentration of 2 μM, compounds without an IC50, read-out: EGFR inhibition in percent; for IC50: GST-EGFR, ATP 5 μM
T1 construct: The intracellular portion of EGFR started at nucleotide 2189 (corresponding to amino acid 667) and ended at the termination codon; made in house; host or cells: Sf9 insect cells (baculovirus)
How it was run: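 Potency came from triplicate 16-point half-log titrations starting at 200 uM, with IC50 fitted from % inhibition against log concentration, or % inhibition at 2 μM otherwise. Reaction: Sf9-made GST–EGFR cytoplasmic region (aa 667 onward), biotin-polyGluTyr, 5 μM ATP with 33P tracer, pH 8.0 Tris/Mg/vanadate/DTT, 30 °C for 1 h; captured on streptavidin Flashplates and counted.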

HER-2 = biological target: T2, HER-2 (Homo sapiens, UniProt P04626); assay: HER-2 Kinase Assay; assay type: biochemical; conditions: for IC50: value in parentheses; for inhibition at 1 µM: test concentration of 1 μM
T2 construct: His6 with thrombin site (N); purchased Proqinase (Freiburg, Germany)
Method: The HER-2 kinase used was purified at Proqinase (Freiburg, Germany) from a construct that consisted of a fusion of GST (Glutathione-S-Transferase), HIS6-Thrombin and the nucleotides encoding amino acids 679 to 1255 of HER-2 (Accession Number M11730).
A mixture of a 10× kinase reaction buffer (600 mM Hepes at pH 7.5, 30 mM Magnesium Chloride, 0.03 mM Sodium Vanadate and 500 μg/mL PEG 20,000), DTT (1.2 mM final from a 10 mM stock), APT (1 μM from a 10 mM stock), biotinylated polyGluTyr (1.5 ng/μL final from stock of 1 μg/μL) prepared by Upstate Biotechnologies, Lake Placid, N.Y.), Manganese Chloride (3 mM final from a 1 M stock), γ-^33P-ATP (10 μCl/μL stock) and water (70 μL/well) was added to each well of a Streptavidin Flashplate (Cat. # SMP103, NEN, Boston, Mass.).
Test compound stock (1 μL) was added to the appropriate wells. Diluted GSTHER2 kinase (6.7 ng/μL diluted into 50 mM Tris-HCl at pH 8.0 and 0.1% bovine serum albumin) (30 μL) was added (total volume of 200 ng/well) to initiate the reactions.
The reaction plates were incubated at 30° C. for 1 hr. The reaction was terminated by aspirating the reaction mixture from the plate wells and washing the wells three times with a 1×PBS stop buffer (300 μL) and 100 mM EDTA. After the final wash, the same stop buffer (200 μL) was again added to the wells. The plates were then sealed and read on the TopCount scintillation counter.
The Her-2 inhibition values were derived according to the procedure described in Example 164 and are shown as percent in Table 4 at a test concentration of 1 μM. For those compounds with an IC50, the IC50 value in μM is shown in parentheses. For compounds with multiple test values, each value represents a separate assay result.

T1 sequence (P00533 669-1210 limits assumed): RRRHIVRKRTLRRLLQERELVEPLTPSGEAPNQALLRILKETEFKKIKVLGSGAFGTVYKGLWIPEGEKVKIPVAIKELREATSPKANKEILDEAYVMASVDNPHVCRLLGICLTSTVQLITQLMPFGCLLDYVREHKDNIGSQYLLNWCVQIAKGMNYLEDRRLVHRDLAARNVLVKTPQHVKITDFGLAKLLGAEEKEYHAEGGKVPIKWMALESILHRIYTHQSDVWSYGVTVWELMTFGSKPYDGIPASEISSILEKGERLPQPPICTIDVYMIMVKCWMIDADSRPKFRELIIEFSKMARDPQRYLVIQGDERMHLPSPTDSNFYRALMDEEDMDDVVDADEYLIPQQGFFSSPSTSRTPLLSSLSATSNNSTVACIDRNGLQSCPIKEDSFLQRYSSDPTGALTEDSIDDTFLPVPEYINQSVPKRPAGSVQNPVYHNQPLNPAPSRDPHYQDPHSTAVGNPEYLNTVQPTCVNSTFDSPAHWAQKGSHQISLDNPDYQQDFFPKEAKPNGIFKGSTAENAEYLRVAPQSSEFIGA
T2 sequence (P04626 679-1255): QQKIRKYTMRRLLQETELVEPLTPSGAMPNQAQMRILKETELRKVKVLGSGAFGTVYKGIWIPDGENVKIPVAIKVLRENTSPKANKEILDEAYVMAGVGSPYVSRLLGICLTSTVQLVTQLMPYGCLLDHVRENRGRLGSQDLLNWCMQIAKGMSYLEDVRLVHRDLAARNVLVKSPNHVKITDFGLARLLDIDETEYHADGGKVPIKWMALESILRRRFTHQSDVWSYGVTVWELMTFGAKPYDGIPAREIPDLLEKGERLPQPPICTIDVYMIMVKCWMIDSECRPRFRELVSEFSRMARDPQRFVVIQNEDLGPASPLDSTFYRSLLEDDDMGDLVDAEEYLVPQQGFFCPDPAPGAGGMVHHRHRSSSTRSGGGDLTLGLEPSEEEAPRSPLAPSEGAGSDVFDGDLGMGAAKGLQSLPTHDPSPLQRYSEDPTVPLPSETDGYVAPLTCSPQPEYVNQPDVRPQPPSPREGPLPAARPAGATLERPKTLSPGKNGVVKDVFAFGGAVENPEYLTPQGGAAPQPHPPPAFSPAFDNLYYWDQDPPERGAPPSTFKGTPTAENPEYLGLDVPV

| SMILES | inhibition at 2 µM (EGFR) [%] | IC50 (HER-2) [nM] | IC50 (EGFR) [nM] | inhibition at 1 µM (HER-2) [%] |
| --- | --- | --- | --- | --- |
| O=C(Nc1ccc(N2C(=O)Nc3c(C(=O)Nc4ccc(CN5CCOCC5)cc4)sc4ncnc2c34)cc1)c1ccccc1 [Cpd 248, 5-(4-benzoylamino-phenyl)-4-oxo-4,5-dihydro-3H-1-thia-3,5,6,8-tetraaza-acenaphthylene-2-carboxylic acid (4-morpholin-4-ylmethyl-phenyl)-amide] | 8 | > 100000 | – | – |
| COc1cc(NC(=O)c2sc3ncnc4c3c2NC(=O)N4c2cccc(Br)c2)ccc1CN1CCOCC1 [Cpd 184, 5-(3-bromo-phenyl)-4-oxo-4,5-dihydro-3H-1-thia-3,5,6,8-tetraaza-acenaphthylene-2-carboxylic acid (3-methoxy-4-morpholin-4-ylmethyl-phenyl)-amide] | – | 79 | 17 | – |
| COc1cc(NC(=O)c2sc3ncnc4c3c2NC(=O)N4c2ccc(OCc3cccs3)c(Cl)c2)ccc1CN1CCOCC1 [Cpd 229, 5-[3-chloro-4-(thiophen-2-ylmethoxy)-phenyl]-4-oxo-4,5-dihydro-3H-1-thia-3,5,6,8-tetraaza-acenaphthylene-2-carboxylic acid (3-methoxy-4-morpholin-4-ylmethyl-phenyl)-amide] | – | 17 | 33 | – |
| COc1cc(NC(=O)c2sc3ncnc4c3c2NC(=O)N4c2ccc(Oc3cccc(F)c3)c(Cl)c2)ccc1OCCN1CCCCC1 [Cpd 161, 5-[3-chloro-4-(3-fluoro-phenoxy)-phenyl]-4-oxo-4,5-dihydro-3H-1-thia-3,5,6,8-tetraaza-acenaphthylene-2-carboxylic acid [3-methoxy-4-(2-piperidin-1-yl-ethoxy)-phenyl]-amide] | – | 699 | 23 | – |
| COc1cc(N2C(=O)Nc3c(C(=O)Nc4ccc(CN5CCOCC5)cc4)sc4ncnc2c34)ccc1Br [Cpd 84, 5-(4-bromo-3-methoxy-phenyl)-4-oxo-4,5-dihydro-3H-1-thia-3,5,6,8-tetraaza-acenaphthylene-2-carboxylic acid (4-morpholin-4-ylmethyl-phenyl)-amide] | – | 518 | 776 | – |
| COc1ccc(N2C(=O)Nc3c(C(=O)Nc4ccc(CN5CCCCC5)cc4)sc4ncnc2c34)c(F)c1 [Cpd 66, 5-(2-fluoro-4-methoxy-phenyl)-4-oxo-4,5-dihydro-3H-1-thia-3,5,6,8-tetraaza-acenaphthylene-2-carboxylic acid (4-piperidin-1-ylmethyl-phenyl)-amide] | – | – | 524 | 11 |
| CN1CCC(NC(=O)c2sc3ncnc4c3c2NC(=O)N4c2ccc3nc(Cc4cccc(F)c4)[nH]c3c2)CC1 [Cpd 194, 5-[2-(3-fluoro-benzyl)-3H-benzoimidazol-5-yl]-4-oxo-4,5-dihydro-3H-1-thia-3,5,6,8-tetraaza-acenaphthylene-2-carboxylic acid (1-methyl-piperidin-4-yl)-amide] | 31 | 5770 | – | – |
| CN(C)C1CCN(Cc2ccc(NC(=O)c3sc4ncnc5c4c3NC(=O)N5c3ccc(Oc4ccccc4)cc3)cc2)CC1 [Cpd 260, 4-oxo-5-(4-phenoxy-phenyl)-4,5-dihydro-3H-1-thia-3,5,6,8-tetraaza-acenaphthylene-2-carboxylic acid [4-(4-dimethylamino-piperidin-1-ylmethyl)-phenyl]-amide] | – | 28 | 37 | – |
| COc1cc(NC(=O)c2sc3ncnc4c3c2NC(=O)N4c2ccc(OCc3ccco3)c(Cl)c2)ccc1CN1CCOCC1 [Cpd 246, 5-[3-chloro-4-(furan-2-ylmethoxy)-phenyl]-4-oxo-4,5-dihydro-3H-1-thia-3,5,6,8-tetraaza-acenaphthylene-2-carboxylic acid (3-methoxy-4-morpholin-4-ylmethyl-phenyl)-amide] | – | 47 | 22 | – |
| O=C(Nc1ccc(CN2CCCCC2)cc1)c1sc2ncnc3c2c1NC(=O)N3c1ccc(Oc2cccnc2)cc1 [Cpd 238, 4-oxo-5-[4-(pyridin-3-yloxy)-phenyl]-4,5-dihydro-3H-1-thia-3,5,6,8-tetraaza-acenaphthylene-2-carboxylic acid (4-piperidin-1-ylmethyl-phenyl)-amide] | – | 1050 | 132 | – |
| COc1ccc(C(=O)c2sc3ncnc4c3c2NC(=O)N4c2ccc(Oc3ccccc3)cc2)cc1OC [Cpd 202] | 31 | > 100000 | – | – |
| O=C(Nc1ccc(C(O)CN2CCOCC2)cc1)c1sc2ncnc3c2c1NC(=O)N3c1ccc(Oc2ccccc2)cc1 (stereo not drawn) [Cpd 174, 4-oxo-5-(4-phenoxy-phenyl)-4,5-dihydro-3H-1-thia-3,5,6,8-tetraaza-acenaphthylene-2-carboxylic acid [4-(1-hydroxy-2-morpholin-4-yl-ethyl)-phenyl]-amide] | – | 818 | 18 | – |
| COc1cc(NC(=O)c2sc3ncnc4c3c2NC(=O)N4c2ccc(Br)cc2)ccc1CN1CCOCC1 [Cpd 201, 5-(4-bromo-phenyl)-4-oxo-4,5-dihydro-3H-1-thia-3,5,6,8-tetraaza-acenaphthylene-2-carboxylic acid (3-methoxy-4-morpholin-4-ylmethyl-phenyl)-amide] | – | 92 | 106 | – |

Now from value to compound:

| inhibition at 2 µM (EGFR) [%] | IC50 (HER-2) [nM] | IC50 (EGFR) [nM] | inhibition at 1 µM (HER-2) [%] | SMILES |
| --- | --- | --- | --- | --- |
| 48 | > 10000 | – | – | O=C(c1sc2ncnc3c2c1NC(=O)N3c1ccc(Oc2ccccc2)cc1)N1CCN(CCN2CCOCC2)CC1 [Cpd 213, 2-[4-(2-morpholin-4-yl-ethyl)-piperazine-1-carbonyl]-5-(4-phenoxy-phenyl)-3H,5H-1-thia-3,5,6,8-tetraaza-acenaphthylen-4-one] |
| – | 613 | 155 | – | CN1CCN(Cc2ccc(NC(=O)c3sc4ncnc5c4c3NC(=O)N5c3cccc(Oc4ccccc4)c3)cc2)CC1 [Cpd 199, 4-oxo-5-(3-phenoxy-phenyl)-4,5-dihydro-3H-1-thia-3,5,6,8-tetraaza-acenaphthylene-2-carboxylic acid [4-(4-methyl-piperazin-1-ylmethyl)-phenyl]-amide] |
| – | 804 | 41 | 40 | O=C(Nc1ccc(CN2CCOCC2)cc1)c1sc2ncnc3c2c1NC(=O)N3c1ccc(F)c(Cl)c1 [Cpd 13, 5-(3-chloro-4-fluoro-phenyl)-4-oxo-4,5-dihydro-3H-1-thia-3,5,6,8-tetraaza-acenaphthylene-2-carboxylic acid (4-morpholin-1-ylmethyl-phenyl)-amide] |
| – | 355 | 141 | – | O=C(Nc1cccc(CN2CCOCC2)c1)c1sc2ncnc3c2c1NC(=O)N3c1ccc(Oc2ccccc2)cc1 [Cpd 220, 4-oxo-5-(4-phenoxy-phenyl)-4,5-dihydro-3H-1-thia-3,5,6,8-tetraaza-acenaphthylene-2-carboxylic acid (3-morpholin-4-ylmethyl-phenyl)-amide] |
| – | 33 | 17 | – | COc1cc(NC(=O)c2sc3ncnc4c3c2NC(=O)N4c2ccc(OCc3cccs3)c(Cl)c2)ccc1CN1CCCCC1 [Cpd 228, 5-[3-chloro-4-(thiophen-2-ylmethoxy)-phenyl]-4-oxo-4,5-dihydro-3H-1-thia-3,5,6,8-tetraaza-acenaphthylene-2-carboxylic acid (3-methoxy-4-piperidin-1-ylmethyl-phenyl)-amide] |
| 4 | > 100000 | – | – | CCOC(=O)c1sc2ncnc3c2c1NC(=O)N3c1ccc(OCc2ccco2)c(Cl)c1 [Cpd 222, 5-[3-chloro-4-(furan-2-ylmethoxy)-phenyl]-4-oxo-4,5-dihydro-3H-1-thia-3,5,6,8-tetraaza-acenaphthylene-2-carboxylic acid ethyl ester] |
